Assay results reported in ChEMBL document CHEMBL4000226, “Inhibitory potential of flavonoids on PtdIns(3,4,5)P3 binding with the phosphoinositide-dependent kinase 1 pleckstrin homology domain” (Bioorg Med Chem Lett, 2017).
The source made the active and inactive calls. The calls are words filed in the database; no cut-off is given here.

Experiments:
[1] = molecular target: 3-phosphoinositide-dependent protein kinase 1 (Homo sapiens) (UniProt O15530); assay: Inhibition of sucrose loaded POPC/POPE/POPS/PtdIns(3,4,5)P3 (59:20:20:1) liposome binding to eGFP-fused PDK1 PH domain (unknown origin) expressed in Escherichia coli BL21 after 10 mins by fluorescence spectrophotometry based pull down assay
[2] = molecular target: 3-phosphoinositide-dependent protein kinase 1 (Homo sapiens) (UniProt O15530); assay: Inhibition of sucrose loaded POPC/POPE/POPS/PtdIns(3,4,5)P3 (59:20:20:1) liposome binding to eGFP-fused PDK1 PH domain (unknown origin) expressed in Escherichia coli BL21 at 10 uM after 10 mins by fluorescence spectrophotometry based pull down assay

3-phosphoinositide-dependent protein kinase 1 (Homo sapiens), sequence (O15530 whole entry, looked up, the tested form may be a part): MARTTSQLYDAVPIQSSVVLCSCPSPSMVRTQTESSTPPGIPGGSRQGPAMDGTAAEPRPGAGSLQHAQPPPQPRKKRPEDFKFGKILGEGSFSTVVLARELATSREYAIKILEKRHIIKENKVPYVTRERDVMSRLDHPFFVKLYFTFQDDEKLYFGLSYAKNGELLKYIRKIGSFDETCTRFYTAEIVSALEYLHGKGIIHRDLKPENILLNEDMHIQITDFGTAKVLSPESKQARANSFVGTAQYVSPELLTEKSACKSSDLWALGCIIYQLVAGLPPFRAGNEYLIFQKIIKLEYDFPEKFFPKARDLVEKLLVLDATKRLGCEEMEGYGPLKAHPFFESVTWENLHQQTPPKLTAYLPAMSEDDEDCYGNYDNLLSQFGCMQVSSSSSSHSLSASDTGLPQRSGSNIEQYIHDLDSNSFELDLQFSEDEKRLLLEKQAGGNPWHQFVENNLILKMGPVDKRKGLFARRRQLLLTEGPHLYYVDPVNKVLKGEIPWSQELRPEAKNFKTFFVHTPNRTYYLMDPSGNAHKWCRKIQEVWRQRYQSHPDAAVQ

Structure (SMILES) | inhibition [1] | inhibition [2]
O=c1c(O)c(-c2cc(O)c(O)c(O)c2)oc2cc(O)cc(O)c12 | Dose-dependent effect | –
O=c1c(O)c(-c2ccc(O)c(O)c2)oc2c(O)c(O)cc(O)c12 | Dose-dependent effect | –
O=c1cc(-c2ccccc2)oc2ccccc12 | – | Active
COc1ccc2c(=O)cc(-c3ccccc3)oc2c1OC | – | Active
O=c1cc(-c2ccc(O)cc2)oc2cc(O)ccc12 | – | Active
O=c1c(O)c(-c2ccc(O)c(O)c2)oc2cc(O)ccc12 | Dose-dependent effect | Active
O=c1c(O)c(-c2ccccc2)oc2cc(O)cc(O)c12 | – | Active
O=c1c(O)c(-c2ccc(O)c(O)c2)oc2cc(O)cc(O)c12 | Dose-dependent effect | –
O=c1cc(-c2ccccc2)oc2cc(O)cc(O)c12 | – | Active
COc1cc(OC)c2c(=O)cc(-c3ccccc3)oc2c1 | – | Active
